# Test results from US10273226B2, “Pyrazolyl-heteroarylamides as pesticides” (Bayer Animal Health GmbH, priority 2014, dated 2019).
# Test system: Ctenocephalides felis
# Assay: Ctenocephalides felis oral test
# Format: in vivo
# Conditions: application rate 100 ppm in citrated cattle blood; after 2 days
# Outline: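 Oral exposure of unfed adult fleas, roughly 20 per chamber, to compound-spiked citrated cattle blood taken up across a parafilm membrane. Read-out is percent kill at 2 days, where 100% means every flea dead.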
row,Structure (SMILES),efficacy (kill in %) [%]
1,Cn1nc(C(F)(F)C(F)(F)F)c(C(F)(F)F)c1-n1cc(-c2ccc(F)c(NC(=O)C3CC3)c2)cn1 [Example 1-055],100
2,Cn1nc(C(F)(F)C(F)(F)F)c(C(F)(F)F)c1-n1cc(-c2cccc(NC(=O)c3cccnc3Cl)c2)cn1 [Example 1-028],100
3,Cn1nc(C(F)(F)C(F)(F)F)c(C(F)(F)F)c1-n1cc(-c2cccc(NC(=O)c3cccc(F)c3)c2)cn1 [Example 1-013],100
4,COCC(=O)Nc1cc(-c2cnn(-c3c(C(F)(F)F)c(C(F)(F)C(F)(F)F)nn3C)c2)ccc1F [Example 1-048],95

# Test system: Rhipicephalus sanguineus
# Assay: Rhipicephalus sanguineus in vitro contact test with adult brown dog ticks
# Format: in vivo
# Conditions: application rate 5 μg/cm^2 (500 g/ha); after 48 h; ticks dead or moribund
# Outline: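 Test tubes (25 ml) were coated by dissolving active ingredient in acetone p.a., diluting to the required concentration, and spreading 250 μl over the inner walls and base on an orbital shaker at 30 rpm for 2 h. Once dry, 5-10 adult Rhipicephalus sanguineus were added, and tubes were capped with perforated lids and kept horizontal in darkness at room temperature. At 48 h, ticks were knocked down and heated at 45-50° C. for up to 5 min. Those unable to climb away were counted dead or moribund, and efficacy ran from 0% to 100%.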
row,Structure (SMILES),efficacy [%]
1,Cn1nc(C(F)(F)C(F)(F)F)c(C(F)(F)F)c1-n1cc(-c2ccc(F)c(NC(=O)C3CC3)c2)cn1 [Example 1-055],80
2,Cn1nc(C(F)(F)C(F)(F)F)c(C(F)(F)F)c1-n1cc(-c2cccc(NC(=O)c3cccnc3Cl)c2)cn1 [Example 1-028],100
3,Cn1nc(C(F)(F)C(F)(F)F)c(C(F)(F)F)c1-n1cc(-c2cccc(NC(=O)c3cccc(F)c3)c2)cn1 [Example 1-013],100
4,COCC(=O)Nc1cc(-c2cnn(-c3c(C(F)(F)F)c(C(F)(F)C(F)(F)F)nn3C)c2)ccc1F [Example 1-048],100

# Test system: Spodoptera frugiperda
# Assay: Spodoptera frugiperda spray test
# Format: in vivo
# Conditions: application rate 100 g/ha; caterpillars; after 7 days
# Outline: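 Maize leaf discs were sprayed with compound formulated in solvent plus water containing 1000 ppm emulsifier, dried, then infested with Spodoptera frugiperda caterpillars. Efficacy in % mortality was scored after 7 days (100% all killed, 0% none).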
row,Structure (SMILES),efficacy [%]
1,Cn1nc(C(F)(F)C(F)(F)F)c(C(F)(F)F)c1-n1cc(-c2ccc(F)c(NC(=O)C3CC3)c2)cn1 [Example 1-055],100
2,Cn1nc(C(F)(F)C(F)(F)F)c(C(F)(F)F)c1-n1cc(-c2cccc(NC(=O)c3cccnc3Cl)c2)cn1 [Example 1-028],100
3,Cn1nc(C(F)(F)C(F)(F)F)c(C(F)(F)F)c1-n1cc(-c2cccc(NC(=O)c3cccc(F)c3)c2)cn1 [Example 1-013],100

# Test system: Boophilus microplus
# Assay: Boophilus microplus injection test
# Format: in vivo
# Conditions: application rate 20 μg/animal; injection into abdomen; assessed after 7 days
# Outline: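 Engorged adult female Boophilus microplus ticks (5 per dose) each received a 1 μl abdominal injection of compound in DMSO and were held in a climate-controlled room. Efficacy was scored after 7 days from fertile egg laying, with unclear eggs kept until hatching (~42 days); 100% means no fertile eggs.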
row,Structure (SMILES),efficacy (laying of fertile eggs) [%]
1,Cn1nc(C(F)(F)C(F)(F)F)c(C(F)(F)F)c1-n1cc(-c2ccc(F)c(NC(=O)C3CC3)c2)cn1 [Example 1-055],100
2,Cn1nc(C(F)(F)C(F)(F)F)c(C(F)(F)F)c1-n1cc(-c2cccc(NC(=O)c3cccnc3Cl)c2)cn1 [Example 1-028],100
3,Cn1nc(C(F)(F)C(F)(F)F)c(C(F)(F)F)c1-n1cc(-c2cccc(NC(=O)c3cccc(F)c3)c2)cn1 [Example 1-013],100
4,COCC(=O)Nc1cc(-c2cnn(-c3c(C(F)(F)F)c(C(F)(F)C(F)(F)F)nn3C)c2)ccc1F [Example 1-048],100

# Test system: Myzus persicae
# Assay: Myzus persicae spray test
# Format: in vivo
# Conditions: application rate 100 g/ha; after 6 days
# Description: Myzus persicae—Spray Test
# To produce an appropriate active ingredient formulation, 1 part by weight of active ingredient is dissolved using the specified parts by weight of solvent and made up with water containing an emulsifier concentration of 1000 ppm until the desired concentration is attained. To produce further test concentrations, the preparation is diluted with emulsifier-containing water.
# Discs of Chinese cabbage leaves (Brassica pekinensis) infested by all stages of the green peach aphid (Myzus persicae) are sprayed with an active ingredient formulation of the desired concentration.
# After 6 days, efficacy in % is determined. 100% means that all the aphids have been killed; 0% means that none of the aphids have been killed.
row,Structure (SMILES),efficacy [%]
1,COCC(=O)Nc1cc(-c2cnn(-c3c(C(F)(F)F)c(C(F)(F)C(F)(F)F)nn3C)c2)ccc1F [Example 1-048],90

# Test system: Musca domestica
# Assay: Musca domestica test
# Format: in vivo
# Conditions: application rate 100 ppm; adult houseflies; after 2 days
# Description: Solvent: dimethyl sulphoxide
# To produce an appropriate active ingredient formulation, 10 mg of active ingredient are mixed with 0.5 ml of dimethyl sulphoxide, and the concentrate is diluted with water to the desired concentration.
# Vessels containing a sponge treated with sugar solution and the active ingredient formulation of the desired concentration are populated with 10 adult houseflies (Musca domestica).
# After 2 days, the kill in % is determined. 100% means that all of the flies have been killed; 0% means that none of the flies have been killed.
row,Structure (SMILES),efficacy (kill in %) [%]
1,Cn1nc(C(F)(F)C(F)(F)F)c(C(F)(F)F)c1-n1cc(-c2ccc(F)c(NC(=O)C3CC3)c2)cn1 [Example 1-055],100
2,Cn1nc(C(F)(F)C(F)(F)F)c(C(F)(F)F)c1-n1cc(-c2cccc(NC(=O)c3cccnc3Cl)c2)cn1 [Example 1-028],100
3,Cn1nc(C(F)(F)C(F)(F)F)c(C(F)(F)F)c1-n1cc(-c2cccc(NC(=O)c3cccc(F)c3)c2)cn1 [Example 1-013],90

# Test system: Tetranychus urticae
# Assay: Tetranychus urticae spray test, OP-resistant
# Format: in vivo
# Conditions: application rate 100 g/ha; after 6 days
# Outline: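 Bean leaf discs (Phaseolus vulgaris) carrying all stages of OP-resistant mites are sprayed with compound formulated in solvent and emulsifier-containing water. Efficacy (% mites killed) is scored after 6 days.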
row,Structure (SMILES),efficacy [%]
1,Cn1nc(C(F)(F)C(F)(F)F)c(C(F)(F)F)c1-n1cc(-c2ccc(F)c(NC(=O)C3CC3)c2)cn1 [Example 1-055],90
2,Cn1nc(C(F)(F)C(F)(F)F)c(C(F)(F)F)c1-n1cc(-c2cccc(NC(=O)c3cccnc3Cl)c2)cn1 [Example 1-028],100
3,Cn1nc(C(F)(F)C(F)(F)F)c(C(F)(F)F)c1-n1cc(-c2cccc(NC(=O)c3cccc(F)c3)c2)cn1 [Example 1-013],100
4,COCC(=O)Nc1cc(-c2cnn(-c3c(C(F)(F)F)c(C(F)(F)C(F)(F)F)nn3C)c2)ccc1F [Example 1-048],100

# Test system: Ctenocephalides felis
# Assay: Ctenocephalides felis in vitro contact test with adult cat fleas
# Format: in vivo
# Conditions: application rate 5 μg/cm^2 (500 g/ha); after 48 h; fleas dead or moribund
# Description: Ctenocephalides felis—In Vitro Contact Tests with Adult Cat Fleas
# For the coating of the test tubes, 9 mg of active ingredient are first dissolved in 1 ml of acetone p.a. and then diluted to the desired concentration with acetone p.a. 250 μl of the solution are distributed homogeneously on the inner walls and base of a 25 ml test tube by turning and rocking on an orbital shaker (rocking rotation at 30 rpm for 2 h). With 900 ppm active ingredient solution and internal surface 44.7 cm^2, given homogeneous distribution, an area-based dose of 5 μg/cm^2 is achieved.
# After the solvent has evaporated off, the tubes are populated with 5-10 adult cat fleas (Ctenocephalides felis), sealed with a perforated plastic lid and incubated in a horizontal position at room temperature and ambient humidity. After 48 h, efficacy is determined. To this end, the test tubes are stood upright and the fleas are knocked to the base of the tube. Fleas which remain motionless at the base or move in an uncoordinated manner are considered to be dead or moribund.
# 100% efficacy means that all the fleas were dead or moribund. 0% efficacy means that no fleas were harmed.
row,Structure (SMILES),efficacy [%]
1,Cn1nc(C(F)(F)C(F)(F)F)c(C(F)(F)F)c1-n1cc(-c2cccc(NC(=O)c3cccnc3Cl)c2)cn1 [Example 1-028],100
2,Cn1nc(C(F)(F)C(F)(F)F)c(C(F)(F)F)c1-n1cc(-c2cccc(NC(=O)c3cccc(F)c3)c2)cn1 [Example 1-013],100

# Test system: Lucilia cuprina
# Assay: Lucilia cuprina test
# Format: in vivo
# Conditions: application rate 100 ppm; L1 larvae; after 2 days
# Outline: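 About 20 L1 larvae placed in vessels with minced horsemeat treated with compound (DMSO concentrate diluted in water) at the desired concentration. Kill (%) scored after 2 days; 100% means all larvae dead, 0% none.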
row,Structure (SMILES),efficacy (kill in %) [%]
1,Cn1nc(C(F)(F)C(F)(F)F)c(C(F)(F)F)c1-n1cc(-c2ccc(F)c(NC(=O)C3CC3)c2)cn1 [Example 1-055],100
2,Cn1nc(C(F)(F)C(F)(F)F)c(C(F)(F)F)c1-n1cc(-c2cccc(NC(=O)c3cccnc3Cl)c2)cn1 [Example 1-028],100
3,Cn1nc(C(F)(F)C(F)(F)F)c(C(F)(F)F)c1-n1cc(-c2cccc(NC(=O)c3cccc(F)c3)c2)cn1 [Example 1-013],100
4,COCC(=O)Nc1cc(-c2cnn(-c3c(C(F)(F)F)c(C(F)(F)C(F)(F)F)nn3C)c2)ccc1F [Example 1-048],95

# Test system: Phaedon cochleariae
# Assay: Phaedon cochleariae spray test
# Format: in vivo
# Conditions: application rate 100 g/ha; larvae; after 7 days
# Outline: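 Chinese cabbage leaf discs were sprayed with the compound formulated in water containing 1000 ppm emulsifier. After drying, they were infested with mustard beetle larvae. Efficacy was scored as % larvae killed after 7 days (100% = all dead, 0% = none).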
row,Structure (SMILES),efficacy [%]
1,Cn1nc(C(F)(F)C(F)(F)F)c(C(F)(F)F)c1-n1cc(-c2ccc(F)c(NC(=O)C3CC3)c2)cn1 [Example 1-055],100
2,Cn1nc(C(F)(F)C(F)(F)F)c(C(F)(F)F)c1-n1cc(-c2cccc(NC(=O)c3cccnc3Cl)c2)cn1 [Example 1-028],100
3,Cn1nc(C(F)(F)C(F)(F)F)c(C(F)(F)F)c1-n1cc(-c2cccc(NC(=O)c3cccc(F)c3)c2)cn1 [Example 1-013],100
